Legend:
HCT116 p53-null cells = assay: FACS sub-G1 analysis; type: cell-based, human; conditions: 72 hours, dose dependent, over untreated controls
Procedure: (§1) Cells were seeded out at 1×10^6 cells/well on six well plates and treated with CB002 and Analog 11 at ranging doses with DMSO controls. Cells were harvested after 72 hours of treatment, all cells including floating cells were fixed with ethanol and stained with Propidium Iodide and then analyzed using Epics Elite flow cytometer to measure the DNA content of the stained cells.

HCT116 cells = assay: FACS sub-G1 analysis; type: cell-based, human; conditions: 72 hours, dose dependent, over untreated controls
Procedure: as §1

[1] = system: p53 pathway proteins in p73 knockdown DLD-1 cells; assay: Western blot of p53 targets; type: cell-based, human; conditions: for p21 expression: 8 and 24 hours
Procedure: (§2) After treatment, cells were harvested by trypsinization, washed with PBS, and lysed with RIPA buffer (Sigma-Aldrich) for 30 minutes to 1 hour at 4° C. Protein lysates were spun down and supernatant was collected. Protein quantification was performed using a Pierce™ BCA Protein Assay Kit (Thermo Fisher Scientific). 1×NuPAGE® LDS sample buffer (Thermo Fisher Scientific) and 2-Mercaptoethanol as the reducing agent (Sigma-Aldrich) were added to protein lysates, followed by boiling for 15 minutes at 95° C. Equal total protein amounts samples were loaded into NuPAGE™ Novex™ 4-12% Bis-Tris Protein Gels (1.5 mm, Thermo Fisher Scientific) and gel eletrophoresis was performed with NuPAGE™ MES SDS Running Buffer. Proteins were transferred onto an Immobilon-P membrane (PVDF, EMD Millipore) using a Bio-Rad system with a 10% Tris-Glycine and 10% methanol transfer buffer diluted in distilled and deionized water. After transfer, membranes were blocked with 10% milk in TBST solution and then incubated overnight with primary antibody, washed with TBST and incubated with secondary antibody for 1 hour. Incubations were performed in 5% milk in TBST solution. Signal was detected by using a chemiluminescent detection kit, followed by autoradiography. The following antibodies were used: p53 (DO-1, 1:1000, Santa Cruz), p73 (1:1000, Bethyl Laboratories), p21 and NOXA (1:250, EMD Millipore), DR5, FADD, cleaved caspase 3, cleaved caspase 8, cleaved PARP, and LC3B (1:1000, Cell Signaling), and β-actin (1:10000, Sigma).
(§3) Proteins were isolated using NP40 Lysis Buffer (20 mmol/L Tris-HCl (pH 7.4), 150 mmol/L NaCl, 5 mmol/L EDTA, 50 mmol/L NaF, 1 mmol/L glycerophosphate, 5 mmol/L Na4P2O7, 0.5% NP40, and complete protease inhibitor cocktail (Roche)) and electrophoresed through 4-12% SDS-PAGE followed by semi-dry transfer to PVDF membranes. The PVDF membranes were incubated with different antibodies including p21 (OP64-100UG, EMD Millipore (world wide web at emdmillipore.com/US/en/product/Antip21WAF1-(Ab-1)-Mouse-mAb-(EA10), EMD_BIO-OP64)), PUMA (12450S, Cell Signaling Technology, world wide web at cellsignal.com/products/primary-antibodies/puma-d30c10-rabbit-mab/12450), DR5 (3696S, Cell Signaling Technology, world wide web at cellsignal.com/products/primary-antibodies/dr5-antibody/3696?N=4294956287&Ntt=3696s&fromPage=plp& requestid=541668), p53(sc-126, Santa Cruz, world wide web at scbt.com/scbt/fr/product/p53-antibody-do-1), and RAN (610341, BD Transduction Laboratories, world wide web at bdbiosciences.com/us/reagents/research/antibodies-buffers/cell-biologyreagents/cell-biology-antibodies/purified-mouse-anti-ran-20ran/p/610341) in blocking buffer at 4° C. overnight. Bound antibody will be detected using IRDye secondary antibodies (LI-COR Biosciences,) in Odyssey blocking buffer for 1 hour then imaged using the ODYSSEY infrared imaging system.

[2] = system: p53 targets in HCT116 p53-null cells; assay: Western blot of p53 targets; type: cell-based, human
Procedure: as §2, §3

SW480 cells [3] = assay: apoptosis assay, sub-G1 analysis (propidium iodide, flow cytometry); type: cell-based, human; conditions: for sub-G1 fraction: dose dependent, over untreated controls
Procedure: Apoptotic cells were quantified by sub-G1 analysis. Cells were seeded at a density of 2.5×10^5 to 5×10^5 in a 6-well plate and treated for 48-72 hours. After treatment, adherent cells were trypsinized and collected along with floating cells, washed with PBS and fixed in 70% ethanol. Cells were then incubated in a Phosphate-citric acid buffer (0.2 M Na2HPO4+0.1 M Citric Acid, pH 7.8) at room temperature for 5 minutes, spun down and resuspended for staining with 50 μg/mL propidium iodide (PI) in the presence of 250 μg/mL pancreatic ribonuclease (RNase A). Sub-G1 analyses were performed using an Epics Elite Epics flow cytometer (Coulter-Beckman).
as §1

SW480 cells [4] = assay: CellTiter-Glo luminescent cell viability assay; type: cell-based, human; conditions: 24 hours
[5] = system: wild-type p53 and p53 targets in HCT116 cells; assay: Western blot of p53 and p53 targets; type: cell-based, human; conditions: for wild-type p53 protein level: 24 hours, increasing dose
Procedure: as §2, §3

DLD-1 p73kd cells = assay: CellTiter-Glo luminescent cell viability assay; type: cell-based; conditions: Homo sapiens, 72 hours, GraphPad
Procedure: (§4) Cells were seeded in 96-well plates at a density of 5×10^3 cells per well. 20 μL of CellTiter-Glo® Reagent was added directly to the wells, following the manufacturer's protocol, and bioluminescence signal was determined using an IVIS imaging system.
(§5) To begin establishing the potential of CB002 as a candidate therapeutic agent, its therapeutic index was determined by treating cancer (DLD-1, SW480, and RXF393) and normal (WI38 and MRC5) cell lines with concentrations of CB002 ranging from 0-500 μM for a period of 72 hours and assessing cell viability by the CellTiter-Glo® luminescence assay (see, FIG. 2). CB002 has a significant therapeutic index among the cells tested.

DLD-1 cells = assay: CellTiter-Glo luminescent cell viability assay; type: cell-based; conditions: Homo sapiens; DLD-1, 72 hours, GraphPad
Procedure: as §4, §5

[6] = system: MRC5 normal lung fibroblasts; assay: CellTiter-Glo luminescent cell viability assay; type: cell-based; conditions: Homo sapiens, MRCS (normal), 72 hours, GraphPad
Procedure: as §4, §5

[7] = system: WI38 normal lung fibroblasts; assay: CellTiter-Glo luminescent cell viability assay; type: cell-based, human; conditions: 72 hours
Procedure: as §4
Cell lines at a concentration of 4×10^3 cells/well were seeded out on an opaque 96-well plate and treated with CB002 and Analog 11 in ranging doses starting from 200 μmol/L with DMSO controls. At 72 hours after treatment, cells were mixed with 30 μL Cell Titer-Glo reagent and after ten minutes of room temperature incubation were imaged using IVIS imaging system (Xenogen).
as §5

For `Cn1c(=O)c2[nH]c(Nc3ccccc3)nc2n(C)c1=O` [CB002, 8-anilino-1,3-dimethyl-3,7-dihydro-1H-purine-2,6-dione], the sub-G1 fraction (HCT116 p53-null cells) was “increased cells in sub-G1 fraction”, the sub-G1 fraction (HCT116 cells) was “increased cells in sub-G1 fraction” and the p21 expression [1] was “absent”. For the same molecule, the PUMA expression ([1]; 8 hours, over control) was “increased expression”, the PUMA expression ([1]; 24 hours) was “largely unchanged from control” and the p21 protein level ([2]; 8 hours) was “increase moderately”. The p21 protein level ([2]; 24 hours) was “no consistent difference”, the sub-G1 content (SW480 cells [3]; 96 μM, 48 hours, parental SW480 (NOXA experiment), DMSO 4.5%) was 19% and the sub-G1 population (SW480 cells [3]; 96 μM, 48 hours, DMSO control 8.7%) was 32.6%. For the same molecule, the “increase of cells in sub-G1” value (SW480 cells [3]; 200 μM, 72 hours) was 20%, the sub-G1 fraction (SW480 cells [3]; 72 hours) was “increased cells in sub-G1 fraction” and the “combination index with Ganetespib” value (SW480 cells [4]; 0-20 μM Ganetespib with 0-200 μM CB002, CompuSyn) was “synergizes with Ganetespib”. The p21 protein level ([5]; 8 and 24 hours) was “increase moderately in a dose dependent fashion”, the “wild-type p53 expression” value ([5]; 50 and 100 μM) was “unable to decrease the expression of wild-type p53” and the “wild-type p53 protein level” value [5] was “moderate increase in wild-type p53”. The IC50 (DLD-1 p73kd cells) was 240 µM, the IC50 (DLD-1 cells) was 161 µM and the IC50 [6] was 647 µM. The “IC50 in Wi38 cells compared with colorectal cancer cells” value ([7]; versus SW480, DLD-1, HCT116 and HCT116 p53-null) was “much higher” and the IC50 ([7]; Homo sapiens, WI-38, WI38 (normal), GraphPad) was 642 µM.

`Cn1c(=O)c2c(nc(Nc3ccccc3)n2C)n(C)c1=O` [Analog 11, 8-anilino-1,3,7-trimethyl-3,7-dihydro-1Hpurine-2,6-dione] was tested, and the sub-G1 fraction (HCT116 p53-null cells) was “increased cells in sub-G1 fraction”, the sub-G1 fraction (HCT116 cells) was “increased cells in sub-G1 fraction” and the p21 expression [1] was “absent”. For the same molecule, the PUMA expression ([1]; 8 hours, over control) was “increased expression”, the PUMA expression ([1]; 24 hours) was “reduction in PUMA” and the p21 protein level ([2]; 8 hours) was “increase moderately”. For the same molecule, the PUMA protein level ([2]; 8 hours, 25 μmol/L and 50 μmol/L) was “appeared to increase”, the PUMA protein level ([2]; 24 hours) was “slight decrease” and the p21 protein level ([2]; 24 hours) was “no consistent difference”. For the same molecule, the sub-G1 fraction (SW480 cells [3]; 72 hours) was “increased cells in sub-G1 fraction”, the “combination index with Irinotecan” value (SW480 cells [4]; 0-100 μM Irinotecan with 0-200 μM Analog 11, CompuSyn) was “synergizes with Irinotecan” and the PUMA expression ([5]; 8 and 24 hours) was “increase only at 24 hours”. The p21 protein level ([5]; 8 and 24 hours) was “increase moderately in a dose dependent fashion” and the “wild-type p53 protein level” value [5] was “moderate increase in wild-type p53”.
